Results taken from patent US20140228329A1, “USE OF 25-HYDROXY VITAMIN D3 TO PROMOTE PHOSPHOROUS UTILISATION IN RUMINANTS” (DSM IP ASSETS B.V., priority 2011, published 2014).

How the values were obtained:
cattle [1] = assay: Low Phosphorous diet experiment in cattle: blood plasma phosphorous concentration; type: in vivo; conditions: cattle on low Phosphorous roughage diet, 2,000 μg 25-hydroxy-vitamin D3 per head/day vs control diet; measured after 1, 11, 12, 13 and 14 days; effect at least after 10 days (FIG. 1)
Method: (§1) In an experimental cattle farm, two groups of animals were selected for the following experiment with a low Phosphorous diet.
(§2) One group received the control diet which was the standard roughage diet without the supplementation of 25-hydroxy-vitamin D3. The other group received the experimental diet which was the standard roughage diet supplemented with 2,000 μg 25-hydroxy-vitamin D3 per head/day
After 1, 11, 12, 13 and 14 days the blood plasma concentration of phosphorous was measured by standard method.

cattle [2] = assay: Low Phosphorous diet experiment in cattle: phosphorous in diet, faeces and urine (P balance); type: in vivo
Method: as §1, §2
Additionally the phosphorous concentration in g/day was measured or/calculated in the diet, faeces and urine.

[3] = low Phosphorous roughage diet, 2,000 μg 25-hydroxy-vitamin D3 per head/day, NS vs control
[4] = low Phosphorous roughage diet, 2,000 μg 25-hydroxy-vitamin D3 per head/day, P < 0.05 vs control

C=C1CC[C@H](O)C/C1=C/C=C1\CCC[C@]2(C)[C@@H]([C@H](C)CCCC(C)(C)O)CC[C@@H]12 [25OH-D3, 25-hydroxy vitamin D3] was tested, and the “phosphorous concentration in blood plasma” value (cattle [1]) was “significant increase”, the “P excretion by the animal” value (cattle [2]; low Phosphorous diet, after 25-OH D3 supplementation vs control) was “significant decrease” and the “P (g/day) Feed” value (cattle [2]; [3]) was 26.36 g/day. The “P (g/day) Urine” value (cattle [2]; [3]) was 1.12 g/day, the “P (g/day) Faeces” value (cattle [2]; [4]) was 17.21 g/day and the “P (g/day) Retained” value (cattle [2]; [4]) was 8.03 g/day.
